From ChEMBL document CHEMBL1201862, “PubChem BioAssay data set” (2004)
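Assay format: 96-well plates, 48-hour exposure. At the GI50, growth is halved.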 Active and inactive are the calls of the source. Rule as the data show it: active = GI50 up to about 1.1 µM and inactive = higher.

Key:
Assay in all cases: growth of human tumour cells (NCI), 48 h
HT-29 = test system: HT-29
UACC-257 = test system: UACC-257
SK-OV-3 = test system: SK-OV-3
HCC 2998 = test system: HCC 2998
NCI-H226 = test system: NCI-H226
MOLT-4 = test system: MOLT-4
HL-60 = test system: HL-60
M14 = test system: M14
SR = test system: SR
K562 = test system: K562
HCT-15 = test system: HCT-15
U-251 = test system: U-251
A549 = test system: A549
SN12C = test system: SN12C
SF-295 = test system: SF-295
HOP-92 = test system: HOP-92
SK-MEL-2 = test system: SK-MEL-2
SNB-75 = test system: SNB-75
MCF7 = test system: MCF7

Compound | GI50 (HT-29) | GI50 (UACC-257) | GI50 (SK-OV-3) | GI50 (HCC 2998) | GI50 (NCI-H226) | GI50 (MOLT-4) | GI50 (HL-60) | GI50 (M14) | GI50 (SR) | GI50 (K562) | GI50 (HCT-15) [µM] | GI50 (U-251) | GI50 (A549) | GI50 (SN12C) | GI50 (SF-295) | GI50 (HOP-92) | GI50 (SK-MEL-2) | GI50 (SNB-75) | GI50 (MCF7)
Cc1ccc(S(=O)(=O)N/N=C/c2oc(-c3cccc([N+](=O)[O-])c3)c(-c3cccc([N+](=O)[O-])c3)c2[N+](=O)[O-])cc1 | > 100 µM (inactive) | 64.7 µM (inactive) | 23.4 µM (inactive) | > 100 µM (inactive) | > 100 µM (inactive) | 25.8 µM (inactive) | 25.4 µM (inactive) | 51.2 µM (inactive) | 17.6 µM (inactive) | 24.9 µM (inactive) | 62.2 | 66.5 µM (inactive) | > 100 µM (inactive) | 61.4 µM (inactive) | 49.8 µM (inactive) | 31.9 µM (inactive) | 28.3 µM (inactive) | 92.5 µM (inactive) | 
CC[n+]1c(/C=C/c2ccc(N(CCCl)CCCl)cc2)ccc2cc(I)ccc21 | 1.84 µM (inactive) | 0.514 µM (active) | 1.31 µM (inactive) | 1.24 µM (inactive) | 1.24 µM (inactive) | 0.723 µM (active) | 0.217 µM (active) | 1.21 µM (inactive) | 0.659 µM (active) | 0.335 µM (active) | 6.52 | 0.67 µM (active) | 3.04 µM (inactive) | 1.28 µM (inactive) | 2.04 µM (inactive) | 0.379 µM (active) | 0.372 µM (active) | 0.394 µM (active) | 
COC1=C(OC)C(=O)c2cc(SC)c(=O)c(SC)cc2C1=O | > 100 µM (inactive) | 6.65 µM (inactive) | 36.4 µM (inactive) | > 100 µM (inactive) | 13.5 µM (inactive) | 3.79 µM (inactive) | 1.68 µM (inactive) | 17.2 µM (inactive) | 4.33 µM (inactive) | 15.9 µM (inactive) | 25.1 | 17.9 µM (inactive) | 22.6 µM (inactive) | 14.7 µM (inactive) | 15.7 µM (inactive) | 17.7 µM (inactive) | 3.85 µM (inactive) | 13.6 µM (inactive) | 
O=P(Oc1ccc2ccccc2c1)(N1CC1)N1CC1 | > 100 µM (inactive) | 38.2 µM (inactive) | 46.3 µM (inactive) | 88.1 µM (inactive) | 16.2 µM (inactive) | 53.2 µM (inactive) | 26.4 µM (inactive) | 11.4 µM (inactive) | 3.13 µM (inactive) | 37.2 µM (inactive) | > 100 | 27.6 µM (inactive) | 5.62 µM (inactive) | 23.5 µM (inactive) | 10.9 µM (inactive) | 24.5 µM (inactive) | 68.1 µM (inactive) |  | 
CCSC1=C(C)N(/C=N/C(C)(C)C)CC1 | > 100 µM (inactive) | > 100 µM (inactive) | > 100 µM (inactive) | > 100 µM (inactive) | > 100 µM (inactive) | > 100 µM (inactive) | > 100 µM (inactive) | > 100 µM (inactive) | > 100 µM (inactive) | > 100 µM (inactive) | > 100 | > 100 µM (inactive) | > 100 µM (inactive) | > 100 µM (inactive) | > 100 µM (inactive) | > 100 µM (inactive) | > 100 µM (inactive) | > 100 µM (inactive) | 
CCOC(=O)C1=C(c2ccccc2)N(C(C)=O)Cc2ccccc21 | 16.3 µM (inactive) | 16.9 µM (inactive) | 29.9 µM (inactive) | 24.7 µM (inactive) | 14.9 µM (inactive) | 12 µM (inactive) | 11 µM (inactive) | 18.5 µM (inactive) | 9.73 µM (inactive) | 14.5 µM (inactive) | 21.4 | 17.2 µM (inactive) | 18.4 µM (inactive) | 21.9 µM (inactive) | 13.9 µM (inactive) | 3.1 µM (inactive) | 17.5 µM (inactive) | 18.6 µM (inactive) | 
COc1ccc2c(n1)Sc1nc3ccccc3nc1N2 | 85.7 µM (inactive) | > 100 µM (inactive) | 37.2 µM (inactive) |  | 10.7 µM (inactive) | 13.8 µM (inactive) |  | > 100 µM (inactive) |  | 30.3 µM (inactive) | 24.9 | 19.4 µM (inactive) | > 100 µM (inactive) | 21 µM (inactive) | 26.7 µM (inactive) | 78.5 µM (inactive) | > 100 µM (inactive) | 25.5 µM (inactive) | 65.2 µM (inactive)
O=C(/C=C\c1cccc2ccccc12)c1cccc2ccccc12 | 5.25 µM (inactive) | 16 µM (inactive) | > 10 µM (inactive) | 13.1 µM (inactive) | 9.16 µM (inactive) | 2.82 µM (inactive) | 3.64 µM (inactive) | 12.2 µM (inactive) | 3.25 µM (inactive) | 4.92 µM (inactive) | 4.03 | 6.34 µM (inactive) | 13.1 µM (inactive) | 15.5 µM (inactive) | 14.7 µM (inactive) | > 10 µM (inactive) | 18.6 µM (inactive) | 5.37 µM (inactive) | 
CCN(CC)CCNC(=O)c1nn(C)c(=S)[nH]c1=S | > 100 µM (inactive) | > 100 µM (inactive) | > 100 µM (inactive) | > 100 µM (inactive) | > 100 µM (inactive) | > 100 µM (inactive) | > 100 µM (inactive) | > 100 µM (inactive) | > 100 µM (inactive) | > 100 µM (inactive) | > 100 | > 100 µM (inactive) | > 100 µM (inactive) | > 100 µM (inactive) | > 100 µM (inactive) | > 100 µM (inactive) | > 100 µM (inactive) | > 100 µM (inactive) | 
COC(=O)C1=C(C(=O)OC)C23CC4CCC2(C(=O)C1O3)C4(C)C (stereo not drawn) | > 100 µM (inactive) | > 100 µM (inactive) | > 100 µM (inactive) | > 100 µM (inactive) | > 100 µM (inactive) | 30.4 µM (inactive) | 21.2 µM (inactive) | > 100 µM (inactive) | 26.7 µM (inactive) | 56.2 µM (inactive) | > 100 | > 100 µM (inactive) | > 100 µM (inactive) | > 100 µM (inactive) | 95.1 µM (inactive) | 48.5 µM (inactive) | > 100 µM (inactive) | 53.8 µM (inactive) | 
NC1c2ccccc2Nc2ccccc21 | 4.08 µM (inactive) | 5.21 µM (inactive) | 4.67 µM (inactive) | 6.46 µM (inactive) | 9.1 µM (inactive) | 2.94 µM (inactive) | 4.3 µM (inactive) | 3.92 µM (inactive) | 2.64 µM (inactive) | 3.54 µM (inactive) | 3.31 |  | 4.26 µM (inactive) | 4.53 µM (inactive) | 4.49 µM (inactive) | 3.27 µM (inactive) | 13.2 µM (inactive) | 11.8 µM (inactive) | 
O=C1C2=C(C(c3ccccc3)=C1c1ccccc1)c1ccccc1C1(c3ccccc3)C2=C(O)C(c2ccccc2)=C1c1ccccc1 (stereo not drawn) | > 100 µM (inactive) | > 100 µM (inactive) | > 100 µM (inactive) | > 100 µM (inactive) | > 100 µM (inactive) | > 100 µM (inactive) | > 100 µM (inactive) | > 100 µM (inactive) | > 100 µM (inactive) |  | > 100 | > 100 µM (inactive) | > 100 µM (inactive) | > 100 µM (inactive) | > 100 µM (inactive) | > 100 µM (inactive) | > 100 µM (inactive) | > 100 µM (inactive) | 
CCCc1c(C(=O)OCC)[nH]c(-c2ccc(-c3[nH]c(C(=O)OCC)c(CCC)c3C(=O)OCC)s2)c1C(=O)OCC | 38.8 µM (inactive) | 66.1 µM (inactive) | 27.1 µM (inactive) | 20.6 µM (inactive) | 72.1 µM (inactive) | 65 µM (inactive) | 46 µM (inactive) | 49.8 µM (inactive) | 7.26 µM (inactive) | 79.4 µM (inactive) | 92.5 | 36.1 µM (inactive) | 52.4 µM (inactive) | > 100 µM (inactive) | 27.9 µM (inactive) | 25.2 µM (inactive) | 15.7 µM (inactive) | 11.8 µM (inactive) | 
O=C1Oc2cc3c(c4cccc1c24)OCN(c1ccc(Cl)cc1)C3 | 11.4 µM (inactive) | 34.9 µM (inactive) | > 100 µM (inactive) | 27.4 µM (inactive) | > 100 µM (inactive) | 7 µM (inactive) | 4.82 µM (inactive) | 6.97 µM (inactive) | 8.79 µM (inactive) | 0.923 µM (active) | 2.97 | 41.9 µM (inactive) | 10.2 µM (inactive) | 13.6 µM (inactive) | 48 µM (inactive) | 20.5 µM (inactive) | 1.83 µM (inactive) | > 63.7 µM (inactive) | 
O=S1(=O)c2ccccc2Oc2ccc(C(/C=N/O)=N/O)cc21 | 63.8 µM (inactive) |  | 39.6 µM (inactive) |  | 57.4 µM (inactive) | 27.5 µM (inactive) | 17.3 µM (inactive) | 37.3 µM (inactive) |  | 30.1 µM (inactive) | 41 | 41.2 µM (inactive) | 65.5 µM (inactive) | 61.9 µM (inactive) | 18.2 µM (inactive) | 45.2 µM (inactive) | 25.7 µM (inactive) | 45.3 µM (inactive) | 26.5 µM (inactive)
COc1ccc(N2C(=O)CC(Cl)C2=O)cc1 (stereo not drawn) | 17.8 µM (inactive) | 16.1 µM (inactive) | > 100 µM (inactive) | 20.4 µM (inactive) | 20.5 µM (inactive) |  |  | > 100 µM (inactive) |  | 6.05 µM (inactive) | 17.5 | > 100 µM (inactive) | > 100 µM (inactive) | 17.5 µM (inactive) |  | 27.5 µM (inactive) | > 100 µM (inactive) | > 100 µM (inactive) | 60.1 µM (inactive)
